Laboratory results taken from ChEMBL document CHEMBL1130825, “Novel D-ring analogues of podophyllotoxin as potent anti-cancer agents” (1998).

Tests used:
[1] = test system: BT-549; test: In vitro cytotoxicity against human breast cancer BT-549 cell line; assay type: functional
[2] = test system: COLO 205; test: In vitro cytotoxicity against human colon cancer COLO 205 cell line; assay type: functional
[3] = test system: HCT-15; test: In vitro cytotoxicity against human colon cancer HCT 15 cell line; assay type: functional
[4] = test system: HCT-116; test: In vitro cytotoxicity against human colon cancer HCT 116 cell line; assay type: functional
[5] = test system: HCC 2998; test: In vitro cytotoxicity against human colon cancer HCC 2998 cell line; assay type: functional
[6] = test system: HT-29; test: In vitro cytotoxicity against human colon cancer HT 29 cell line; assay type: functional
[7] = test system: Hs-578T; test: In vitro cytotoxicity against human breast cancer Hs 578.T cell line; assay type: functional
[8] = test system: KM12; test: In vitro cytotoxicity against human colon cancer KM 12 cell line; assay type: functional
[9] = test system: MCF7; test: In vitro cytotoxicity against human breast cancer MCF-7 cell line; assay type: functional
[10] = test system: MDA-MB-231; test: In vitro cytotoxicity against human breast cancer MDA-MB 231 cell line; assay type: functional
[11] = test system: MDA-MB-435; test: In vitro cytotoxicity against human breast cancer MDA-MB 435 cell line; assay type: functional
[12] = In vitro cytotoxicity against human breast cancer MCF-7 ADR cell line; assay type: functional; details: MCF7
[13] = test system: MDA-N; test: In vitro cytotoxicity against human breast cancer MDA-N cell line; assay type: functional
[14] = test system: SW-620; test: In vitro cytotoxicity against human colon cancer SW 620 cell line; assay type: functional
[15] = test system: A498; test: Compound was evaluated for in vitro cytotoxicity against A 498 cancer cell line; assay type: functional; details: Homo sapiens
[16] = test system: DU-145; test: Compound was evaluated for in vitro cytotoxicity against DU-145 cancer cell line; assay type: functional; details: Homo sapiens
[17] = test system: M14; test: Compound was evaluated for in vitro cytotoxicity against M-14 cancer cell line; assay type: functional; details: Homo sapiens
[18] = test system: MCF7; test: Compound was evaluated for in vitro cytotoxicity against MCF-7 ADR cancer cell line; assay type: functional; details: Homo sapiens
[19] = test system: SK-OV-3; test: Compound was evaluated for in vitro cytotoxicity against SKOV3 cancer cell line; assay type: functional; details: Homo sapiens
[20] = test system: NCI-H522; test: Compound was evaluated for in vitro cytotoxicity against H522 cancer cell line; details: Homo sapiens
[21] = test system: MCF7; test: Compound was evaluated for in vitro cytotoxicity data against human breast cancer MCF-7 ADR cell line; assay type: functional

| Compound | GI50 [1] [nM] | GI50 [2] [nM] | GI50 [3] [nM] | GI50 [4] [nM] | GI50 [5] [nM] | GI50 [6] [nM] | GI50 [7] [nM] | GI50 [8] [nM] | GI50 [9] [nM] | GI50 [10] [nM] | GI50 [11] [nM] | GI50 [12] [nM] | GI50 [13] [nM] | GI50 [14] [nM] | further results |
| --- | --- | --- | --- | --- | --- | --- | --- | --- | --- | --- | --- | --- | --- | --- | --- |
| CCCOC(=O)[C@@H]1[C@H](c2cc(OC)c(OC)c(OC)c2)c2cc3c(cc2[C@H](O)[C@H]1CO)OCO3 | > 30000 | 1200 | 1400 | 420 | 1700 | 890 | 2130 | 560 | 800 | > 30000 | 400 | 3200 | 1450 | 700 |  |
| COC(=O)[C@@H]1[C@H](c2cc(OC)c(OC)c(OC)c2)c2cc3c(cc2C(=O)[C@H]1CO)OCO3 | 29000 | 7710 | 5710 | 6260 | 10800 | 3520 | 1890 | 3620 | 4110 | 16500 | 1640 | 17500 | 2240 | 3710 |  |
| COc1cc([C@@H]2c3cc4c(cc3[C@H](O)[C@@H](CO)[C@@H]2C(=O)O)OCO4)cc(OC)c1OC |  | < 10 | > 100000 | 40000 | 55000 | 50000 |  | < 10 |  |  |  |  |  |  |  |
| CCCOC(=O)[C@@H]1C(c2cc(OC)c(OC)c(OC)c2)c2cc3c(cc2[C@@H]2OC(=O)OC[C@@H]12)OCO3 (stereo not given in full) |  | 900 | 300 | 500 | 2000 | > 30000 |  | 2000 |  |  |  |  |  |  |  |
| COC(=O)[C@@H]1[C@H](c2cc(OC)c(OC)c(OC)c2)c2cc3c(cc2[C@H](O)[C@H]1CO)OCO3 | 60 | 10 | 40 | 40 | 30 | 20 | 10 | 20 | 30 | 30 | 10 | 40 | 10 | 20 | GI50 [15]: 30 nM; GI50 [16]: 40 nM; GI50 [17]: 40 nM; GI50 [18]: 40 nM; GI50 [19]: 30 nM; GI50 [20]: 10 nM |
| CCOC(=O)[C@@H]1[C@H](c2cc(OC)c(OC)c(OC)c2)c2cc3c(cc2C(=O)[C@H]1CO)OCO3 | 5450 | 2220 | 3990 | 4350 | 5630 | 3360 | 1560 | 4210 | 3860 | 5990 | 1330 | 5140 | 1700 | 2070 |  |
| COc1cc([C@@H]2c3cc4c(cc3[C@@H](O[C@@H]3O[C@@H]5CO[C@@H](C)O[C@H]5[C@H](O)[C@H]3O)[C@H]3COC(=O)[C@H]23)OCO4)cc(OC)c1O [ETOPOSIDE] |  | 18100 |  | 6160 | 3460 | 15100 | 8000 | 5620 |  | 2000 | 900 |  | < 10 |  | GI50 [21]: 25000 nM |
| COc1cc([C@@H]2c3cc4c(cc3[C@H](O)[C@H]3COC(=O)[C@H]23)OCO4)cc(OC)c1OC [PODOFILOX] |  |  | 20 | 10 | 200 | 10 | 80 | 10 | 900 | 40 | 700 | 600 | 70 |  |  |
